Experiment [1] concerns BT474 and HN5 tumor cell lines. The experiment in a line: Methylene blue growth inhibition assay (cellular Method A). The experiment is classed as cell-based. The conditions noted are these: Homo sapiens, BT-474 and HN5, 72 h; Table 2, Method A methylene blue, 3 days; class over BT474 and HN5. As for the experimental part:
(§1) Human breast (BT474) and head and neck (HN5) were cultured in low glucose DMEM (Life Technologies 12320-032) containing 10% fetal bovine serum (FBS). Human colon tumor cells (Colo205) were cultured in DMEM (Invitrogen, 10564) containing 10% FBS. The SV40 transformed human mammary epithelial cell line to HB4a was transfected with either human H-ras cDNA (HB4a r4.2) or the human c-ErbB2 cDNA (HB4a c5.2). The HB4a clones were cultured in RPMI containing 10% FBS, insulin ([…]), hydrocortisone ([…]), supplemented with the selection agent hygromycin B ([…]). All lines were grown in a humidified incubator at 37° C. in 95% air, 5% CO2. Cells were harvested using trypsin/EDTA, counted using a haemocytometer, and plated in 100 microliters of the appropriate media, at the following densities, in a 96-well tissue culture plate (Falcon 3075): BT474 10,000 cells/well, HN5 3,000 cells/well. The next day, compounds were diluted in DMEM containing […] gentamicin, at twice the final required concentration, from 10 mM stock solutions in DMSO. 100 microliters/well of these dilutions were added to the 100 microliters of media currently on the cell plates. Medium containing 0.6% DMSO was added to control wells. Compounds diluted in DMEM were added to all cell lines. The final concentration of DMSO in all wells was 0.3%. Cells were returned to the incubator (37° C., […]) for 3 days. Medium was then removed by aspiration. Cell biomass was estimated by staining cells with 90 microliters per well methylene blue (Sigma M9140, 0.5% in 1:1 ethanol:water), and incubation at rt for at least 30 minutes. Stain was removed, and the plates rinsed by immersion in deionized water and air-dried. To release stain from the cells 100 microliters of solubilization solution was added (1% N-lauroyl sarcosine, Sodium salt, Sigma L5125, in PBS), and plates were shaken gently for about 30 minutes. Optical density at 620 nm was measured on a microplate reader. Percent inhibition of cell growth was calculated relative to vehicle treated control wells. Concentration of compound that inhibits 50% of control cell growth (IC50) was interpolated using nonlinear regression (Levenberg-Marquardt) and the equation, y=Vmax*(1−(x/(K+x)))+Y2, where “K” was equal to the IC50. Method B: Celltiter Glo® Growth Inhibition Assays

Experiment [2] has as its system Colo205 tumor cell lines. The experiment is described as above. To be noted: Homo sapiens, COLO 205, 72 h, Table 3, Method A methylene blue, 3 days. The experiment is classed as cell-based. As for the experimental part: as §1
Experiment [3] deals with T1, ErbB2 or EGFR.
T1 construct: enzymes purified from a baculovirus expression system
Put plainly: ErbB enzyme substrate phosphorylation assay (HTRF), Method A. It counts as biochemical. The conditions noted are these: Table 1, enzyme Method A: substrate mix added first, reaction started with enzyme mix; class over ErbB2 or EGFR. On the procedure:
Compounds of the present invention were tested for EGFR, ErbB-2, and ErbB-4 protein tyrosine kinase inhibitory activity in substrate phosphorylation assays using enzymes purified from a baculovirus expression system. Reagent production was conducted essentially as described in Brignola, P. S., et al, (2002) J. Biol. Chem. 277(2): 1576-1585.
The method measures the ability of the isolated enzyme to catalyse the transfer of the gamma-phosphate from ATP onto the tyrosine residue of a biotinylated synthetic peptide referenced “Peptide C” in Brignola, P. S., et al, (2002) J. Biol. Chem. 277(2):1576-1585. The extent of tyrosine phosphorylation was measured using an anti-phosphotyrosine antibody, and quantified by homogenous time-resolved fluorescence (HTRF).
Reactions were performed in black 384-well polystyrene flat-bottom plates in a final volume of 20 μl. Assays were performed by adding 10 μl of each of the following solutions, substrate Mix and enzyme mix: The Substrate mix contained 100 mM 3-[N-morpholino]propanesulfonic acid (MOPS) (pH 7.5), 2 mM MnCl2, 20 μM ATP, 0.01% Tween-20, 0.1 mg/mL (BSA), 0.8 uM peptide substrate, and 1 mM dithiothreitol. The enzyme mix contained 100 mM MOPS (pH7.5); 0.01% Tween-20; 0.1 mg/mL BSA, and either 0.8 nM EGFR, 10 nM ErbB2, or 1 nM ErbB4
During the course of these studies, two separate methods have been used to measure the potency of compounds. In Method A, the substrate mix was added to the compound plates first, then the reaction was started by adding the enzyme mix. In Method B, the enzyme mix was added to the compound plates and the plates were incubated at 20° C. for 1 hour. The reactions were then started by adding the substrate mix.
After initiating the reaction with either method describe above, the reactions were allowed to proceed for 90 minutes at 20° C. The reactions were then terminated by the addition of 20 μl 100 mM EDTA to each well. 40 μl/well of HTRF detection mix were added to the assay plates. The final concentrations of the detection reagents were: 100 mM HEPES (pH7.5), 0.1 mg/mL BSA, 15 nM streptavidin-labeled allophycocyanin (PerkinElmer), and 1 nM europium-labeled anti-phosphotyrosine antibody (PerkinElmer). Assay plates were left unsealed and were counted in a Wallac Multilabel Counter 1420 (PerkinElmer). […]
The data for dose responses were plotted as % Inhibition calculated with the data reduction formula 100*(1−(U1−C2)/(C1−C2)) versus concentration of compound where U is the unknown value, C1 is the average control value obtained for 4.76% DMSO, and C2 is the average control value obtained for 0.035 M EDTA. […] The results for each compound were recorded as pIC50s, calculated as follows: pIC50=−Log 10(K)
Background: In TR-FRET formats the signal depends on donor and acceptor labels being close together.

Experiment [4] deals with T1, ErbB2 or EGFR. The experiment in a line: ErbB enzyme substrate phosphorylation assay (HTRF), Method B (enzyme pre-incubated with compound 1 hour). The experiment is classed as biochemical. The conditions noted are these: Table 1, enzyme Method B: enzyme mix incubated with compound 1 hour at 20° C., reaction started with substrate mix; class over ErbB2 or EGFR. The procedure, abridged: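 Baculovirus-expressed kinase (0.8 nM EGFR or 10 nM ErbB2 in enzyme mix) phosphorylated biotinylated Peptide C (0.8 µM in substrate mix) with 20 µM ATP in substrate mix, MOPS pH 7.5, MnCl2, 90 min at 20 °C. Method A started with enzyme; Method B pre-incubated enzyme with compound 1 h at 20 °C. HTRF read-out; IC50 from 12-point curve (0.00027–47.6 µM), reported as pIC50.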

Where only a bound is given, the exact number is not on record here.

In the case of `O=C(Cc1ccccc1)Nc1cccc(-c2nn3ccccc3c2-c2ccnc(Nc3ccccc3)n2)c1` [Example 3, 2-Phenyl-N-(3-{3-[2-(phenylamino)-4-pyrimidinyl]pyrazolo[1,5-a]pyridin-2-yl}phenyl)acetamide], the 50% inhibitory concentration (IC50) in experiment [1] and in experiment [2] was over 1000 nM in each case. Moreover, the “Activity (Method)” value in experiment [3] was “++ (A) (at least one pIC50 measurement greater than 6 against either ErbB2 or EGFR but no measurement greater than pIC50 of 7)”. As to `O=C(Cc1cccs1)Nc1cccc(-c2nn3ccccc3c2-c2ccnc(Nc3ccccc3)n2)c1` [Example 4, N-(3-{3-[2-(Phenylamino)-4-pyrimidinyl]pyrazolo[1,5-a]pyridin-2-yl}phenyl)-2-(2-thienyl)acetamide], in experiment [3], the “Activity (Method)” value is “++ (A) (at least one pIC50 measurement greater than 6 against either ErbB2 or EGFR but no measurement greater than pIC50 of 7)”. Still for that read-out and setting: for `O=C(Cc1cccc(Cl)c1)Nc1cccc(-c2nn3ccccc3c2-c2ccnc(Nc3ccccc3)n2)c1` [Example 5, 2-(3-Chlorophenyl)-N-(3-{3-[2-(phenylamino)-4-pyrimidinyl]pyrazolo-[1,5-a]pyridin-2-yl}phenyl)acetamide] the value was “+ (A) (no pIC50 measurement greater than 6 against either ErbB2 or EGFR)”; for `O=C(Cc1cc(F)ccc1F)Nc1cccc(-c2nn3ccccc3c2-c2ccnc(Nc3ccccc3)n2)c1` [Example 6, 2-(2,5-Difluorophenyl)-N-(3-{3-[2-(phenylamino)-4-pyrimidinyl]pyrazolo[1,5-a]pyridin-2-yl}phenyl)acetamide], “++ (A) (at least one pIC50 measurement greater than 6 against either ErbB2 or EGFR but no measurement greater than pIC50 of 7)”.

Take `NC1CCc2ccc(Nc3nccc(-c4c(-c5cccc(NC(=O)Cc6cccs6)c5)nn5ccccc45)n3)cc2C1` (stereo not drawn) [Example 55, N-[3-(3-{2-[(7-Amino-5,6,7,8-tetrahydro-2-naphthalenyl)amino]-4-pyrimidinyl}pyrazolo[1,5-a]pyridin-2-yl)phenyl]-2-(2-thienyl)acetamide]: the IC50 in experiment [1] and in experiment [2] was 100 to 1000 nM each time. In addition, the “Activity (Method)” value in experiment [4] is “+++ (B) (at least one pIC50 measurement of greater than 7 against either ErbB2 or EGFR)”.

For orientation: IC50 means the midpoint of a concentration-inhibition curve. Lower therefore signals greater potency.

These data come from patent US7807673B2, “2-pyrimidinyl pyrazolopyridine ErbB kinase inhibitors” (GlaxoSmithKline LLC, priority 2005, dated 2010).
